In PMC7395068, “The evolution of strategies to minimise the risk of human drug-induced liver injury (DILI) in drug discovery and development” (Archives of Toxicology, 2020):
Read-outs that look alike come from different tables or passages of the source.

Assays:
[1] = plasma free fraction; cited from earlier work
[2] = cited from earlier work
[3] = system: HepG2 cells, primary human hepatocytes; details: In vitro Assay; ref Garside 2014; cited from earlier work
[4] = ref Chen 2011; cited from earlier work
HepG2 cells [5] = details: cited from earlier work
PHH = details: cited from earlier work
HepaRG spheroids = test: Combined HCI (HCS) and cellular ATP 3D assay in HepaRG spheroids; details: for AC50 / minimal effective concentration: Homo sapiens
[6] = system: primary human hepatocytes, NIH3T3 fibroblasts, BSEP, CYP3A4; details: cited from earlier work
PHH spheroids = details: cited from earlier work
hLiMTs [7] = test: Combined HCI (HCS) and cellular ATP 3D assay in hLiMTs; details: for AC50 / minimal effective concentration: Homo sapiens
rBsep = details: In vitro Assay; ref Dawson 2012; cited from earlier work
[8] = system: HepG2 C3A spheroid, BSEP, Glu/Gal in HepG2 cells, bioactivation; details: cited from earlier work
hLiMTs [9] = details: cited from earlier work
HepG2 cells [10] = details: In vitro Assay; ref O'Brien 2006; cited from earlier work
[11] = system: THLE-Null and THLE-3A4 cells; details: In vitro Assay; ref Gustafsson 2014; cited from earlier work
[12] = system: THLE or HepG2 cells, isolated mitochondria, BSEP; details: cited from earlier work
[13] = cited from earlier work; remark: listed apart in the source
[14] = system: isolated mouse liver mitochondria; details: In vitro Assay; ref Porceddu 2012; cited from earlier work
Upcyte human hepatocytes = details: In vitro Assay; ref Tolosa 2019; cited from earlier work
[15] = cited from earlier work; remark: listed apart in the source
HepG2 cells [16] = details: cited from earlier work; remark: listed apart in the source
[17] = Plasma free fraction (fu) and unbound Cmax (Cmax,u); type: in vitro ADME, human; details: unbound plasma Cmax
Experimental: The prediction of DILI severity was evaluated further using the 3D combined HCI assays using plasma-free fraction. The majority of fu values were obtained from literature, when unavailable in-house prediction was utilised. Unbound plasma Cmax concentrations (Cmax,u) were derived by multiplying total plasma Cmax with the corresponding free fraction (fu) for each compound.

human hepatocytes = details: In vitro Assay; ref Xu 2008; cited from earlier work
[18] = In vitro Assay, ref Proctor 2017
[19] = Microtissue model structural based (HCI), combined HCS and ATP, MEC < 25 × Cmax.tot cut-off
[20] = In vitro Assay, ref Schadt 2015
[21] = Modeled in vitro assays (cytotoxicity, mitochondrial dysfunction, BSEP), ref Aleo et al. 2019
[22] = In vitro Assay, ref Persson 2013

For `CC(C)C(=O)Nc1ccc([N+](=O)[O-])c(C(F)(F)F)c1` [flutamide, reference compound], the fu [1] is given as 0.050, the “Assigned DILI category” value ([2]; Chen et al. 2016 or literature alignment, ref Chen et al. 2016) is given as 3 and the “In vivo DILI” value ([2]; […]) is given as “+VE”. The “In vivo DILI” value ([2]; ref Aleo 2019) was “+VE”, the “In vivo DILI” value ([2]; ref Dawson 2012) was “+VE” and the “In vivo DILI” value ([2]; ref Garside 2014) was “+VE”. The “In vivo DILI” value ([2]; ref Gustafsson 2014) was “+VE”, the “In vivo DILI” value ([2]; ref O'Brien 2006) was “+VE” and the “In vivo DILI” value ([2]; ref Persson 2013) was “+VE”. The “In vivo DILI” value ([2]; ref Porceddu 2012) was “-VE”, the “In vivo DILI” value ([2]; ref Proctor 2017) was “+VE” and the “In vivo DILI” value ([2]; ref Schadt 2015) was “+VE”. The “In vivo DILI” value ([2]; ref Tolosa 2012) was “+VE”, the “In vivo DILI” value ([2]; ref Tolosa 2019) was “+VE” and the “In vivo DILI” value ([2]; ref Vorrink 2018) was “+VE”. The “In vivo DILI” value ([2]; ref Williams 2019) was “+VE”, the “In vivo DILI” value ([2]; ref Xu 2008) was “+VE” and the “Cluster 1-6 +VE Assay” value [3] was “+VE”. The “DILI Score (FDA) (1-8)” value [4] was 8, the “Structural based (HCI)” value (HepG2 cells [5]; In vitro Assay, ref Tolosa 2012) was “+VE” and the “DILI in vitro assay prediction, Tolosa (2012)” value (HepG2 cells [5]; Structural based (HCI), HepG2, ref Tolosa et al. 2012) was “+VE”. The “PHH/100xCmax, Proctor (2017)” value (PHH; 2D PHH, ATP, IC50 < 100 × Cmax.tot, ref Proctor et al. 2017) was “+VE (IC50 < 100 × Cmax.tot)”, the “PHH/100uM, Proctor (2017)” value (PHH; 2D PHH, ATP, IC50 threshold 100 µM, ref Proctor et al. 2017) was “+VE (IC50 threshold of 100 µM)” and the “PHH ATP <100uM” value (PHH; [18]) was “+VE (IC50 threshold of 100 µM)”. The “HepaRG <25x Avg Cmax ATP” value (HepaRG spheroids; HepaRG, ATP endpoint, cut-off <25x Avg Cmax) was “+ve”, the “HepaRG <100x Avg Cmaxu ATP” value (HepaRG spheroids; HepaRG, ATP endpoint, cut-off <100x Avg Cmaxu) was “+ve (<100x Avg Cmaxu)” and the “HepaRG <25x Avg Cmax HCS” value (HepaRG spheroids; HepaRG, HCS endpoints, cut-off <25x Avg Cmax) was “+ve”. The “HepaRG <100x Avg Cmaxu HCS” value (HepaRG spheroids; HepaRG, HCS endpoints, cut-off <100x Avg Cmaxu) was “+ve (<100x Avg Cmaxu)”, the “HepaRG <25x Avg Cmax All” value (HepaRG spheroids; HepaRG, all endpoints (ATP and HCS), cut-off <25x Avg Cmax) was “+ve” and the “HepaRG Cmax max All” value (HepaRG spheroids; HepaRG, all endpoints, Cmax max used) was “+ve”. The “HepaRG Cmax min All” value (HepaRG spheroids; HepaRG, all endpoints, Cmax min used) was “+ve”, the “HepaRG <10 uM All” value (HepaRG spheroids; HepaRG, all endpoints, cut-off <10 uM) was “+ve (<10 uM)” and the “HepaRG <100x Avg Cmaxu All” value (HepaRG spheroids; HepaRG, all endpoints, cut-off <100x Avg Cmaxu) was “+ve (<100x Avg Cmaxu)”. It also gave an AC50 (HepaRG spheroids; HepaRG, read-out: ATP endpoint AC50) of 14.9 µM, a minimal effective concentration (HepaRG spheroids; HepaRG, read-out: ATP endpoint MEC) of 7.75 µM and an AC50 (HepaRG spheroids; HepaRG, read-out: HCS endpoint AC50) of 42.7 µM. For the same compound, the minimal effective concentration (HepaRG spheroids; HepaRG, read-out: HCS endpoint MEC) was 13.9 µM, the “DILI prediction HepaRG spheroids (HCS-MEC)” value (HepaRG spheroids; [19]) was “+VE (MEC < 25 × Cmax.tot cut-off)” and the “DILI in vitro assay prediction, Schadt (2015)” value ([6]; BSEP & Metabolism based, ref Schadt et al. 2015) was “+VE”. For the same compound, the “Cellular toxicity (3T3 cells)” value [6, 20] was “-VE”, the “Combined Assay” value [6, 20] was “+VE” and the “GSH adduct HML” value [6, 20] was “+VE”. For the same compound, the Hepatocyte cellular toxicity [6, 20] was “-VE”, the “MitoTox 3T3” value [6, 20] was “+VE” and the “TDI CYP3A4” value [6, 20] was “-VE”. For the same compound, the hBSEP inhibition [6, 20] was “-VE”, the “hLiMTs ATP <20 x Cmax” value (PHH spheroids; In vitro Assay, ref Vorrink 2018) was “+VE (IC20 < 20 × Cmax.tot cut-off)” and the “DILI in vitro assay prediction, Vorrink (2018)” value (PHH spheroids; PHH spheroids, ATP, 14 days, IC20 < 20 × Cmax.tot, ref Vorrink et al. 2018) was “+VE (IC20 < 20 × Cmax.tot cut-off)”. For the same compound, the AC50 (hLiMTs [7]; read-out: ATP endpoint AC50) was 29.9 µM, the minimal effective concentration (hLiMTs [7]; read-out: ATP endpoint MEC) was 18.5 µM and the AC50 (hLiMTs [7]; read-out: HCS endpoint AC50) was 43.5 µM. For the same compound, the minimal effective concentration (hLiMTs [7]; read-out: HCS endpoint MEC) was 3.63 µM, the “DILI prediction hLiMTs (HCS-MEC)” value (hLiMTs [7]; [19]) was “+VE (MEC < 25 × Cmax.tot cut-off)” and the “hLiMTs <25x Avg Cmax ATP” value (hLiMTs [7]; hLiMTs, ATP endpoint, cut-off <25x Avg Cmax) was “+ve”. For the same compound, the “hLiMTs <100x Avg Cmaxu ATP” value (hLiMTs [7]; hLiMTs, ATP endpoint, cut-off <100x Avg Cmaxu) was “+ve (<100x Avg Cmaxu)”, the “hLiMTs <25x Avg Cmax HCS” value (hLiMTs [7]; hLiMTs, HCS endpoints, cut-off <25x Avg Cmax) was “+ve” and the “hLiMTs <100x Avg Cmaxu HCS” value (hLiMTs [7]; hLiMTs, HCS endpoints, cut-off <100x Avg Cmaxu) was “+ve (<100x Avg Cmaxu)”. For the same compound, the “hLiMTs <25x Avg Cmax All” value (hLiMTs [7]; hLiMTs, all endpoints (ATP and HCS), cut-off <25x Avg Cmax) was “+ve”, the “hLiMTs Cmax max All” value (hLiMTs [7]; hLiMTs, all endpoints, Cmax max used) was “+ve” and the “hLiMTs Cmax min All” value (hLiMTs [7]; hLiMTs, all endpoints, Cmax min used) was “+ve”. For the same compound, the “hLiMTs <10 uM All” value (hLiMTs [7]; hLiMTs, all endpoints, cut-off <10 uM) was “+ve (<10 uM)”, the “hLiMTs <100x Avg Cmaxu All” value (hLiMTs [7]; hLiMTs, all endpoints, cut-off <100x Avg Cmaxu) was “+ve (<100x Avg Cmaxu)” and the “Inhibition of rBsep cutoff<1& cmax u>.2” value (rBsep) was “+VE”. For the same compound, the “Inhibition of rBsep cutoff<3” value (rBsep) was “+VE”, the “Bayesian Machine Learning DILI prediction, Williams (2019)” value ([8]; Bayesian modeling, ref Williams et al. 2019) was “+VE” and the “Bayesian Machine Learning” value ([8]; In vitro Assay, ref Williams 2019) was “+VE”. The “hLiMTs ATP <100uM” value (hLiMTs [9]; [18]) was “+VE (IC50 threshold of 100 µM)”, the “hLiMTs/100xCmax, Proctor (2017)” value (hLiMTs [9]; hLiMTs, ATP, IC50 < 100 × Cmax.tot, ref Proctor et al. 2017) was “+VE (IC50 < 100 × Cmax.tot)” and the “hLiMTs/100uM, Proctor (2017)” value (hLiMTs [9]; hLiMTs, ATP, IC50 threshold 100 µM, ref Proctor et al. 2017) was “+VE (IC50 threshold of 100 µM)”. For the same compound, the “Structural based (HCI)” value (HepG2 cells [10]) was “+VE”, the THLE-Null [11] was “-VE” and the THLE-Null/3A4 [11] was “-VE”. The “Partition Hybrid HRM Score” value ([12]; In vitro Assay, ref Aleo 2019) was “+VE”, the “Ro2 Hybrid HRM Score” value ([12]; In vitro Assay, ref Aleo 2019) was “+VE” and the “Partition Hybrid HRM Score ≥4, Aleo (2019)” value [12, 21] was “+VE (Partition Hybrid HRM Score ≥4)”. The “Partition Hybrid HRM Score ≥8, Aleo (2019)” value [12, 21] was “+VE (Partition Hybrid HRM Score ≥8)”, the “Rule of Two hybrid HRM Score ≥3, Aleo (2019)” value [12, 21] was “+VE (Rule of Two hybrid HRM Score ≥3)” and the “Rule of Two hybrid HRM Score ≥8, Aleo (2019)” value [12, 21] was “+VE (Rule of Two hybrid HRM Score ≥8)”. The “DILI severity category (Chen et al. [2016])” value ([13]; LTKB DILIrank category, ref Chen et al. 2016) was “Most”, the “DILI severity category (Chen 2016)” value ([13]; human DILI classification, LTKB DILIrank, ref Chen et al. 2016) was “Most” and the DILI severity category ([13]; human DILI severity, ref Chen et al.) was “Most”. The “DILI +VE (5-8), DILI -VE (-4)” value ([13]; ref Chen 2016) was “+VE”, the DILI severity category ([13]; ref Chen 2016) was “vMost-DILI-Concern” and the “in vitro data EC2<=1x Cmax” value [14] was “+VE”. The “in vitro data EC20<=2uM” value [14] was “-VE”, the “Upcytes multi donor assay 14day data” value (Upcyte human hepatocytes) was “+VE” and the Cmax ([15]; read-out: Cmax.tot, value used for normalisation, ref O'Brien et al. 2006) was 6 µM. The Cmax ([15]; read-out: Cmax.tot, value used for normalisation, ref Xu et al. 2008) was 0.36 µM, the Cmax ([15]; read-out: Human plasma Cmax, total plasma Cmax.tot, median of 9 literature references) was 5.43 µM and the Cluser analysis (HepG2 cells [16]; [22]) was “-VE”. The “Structural based (HCI)” value (HepG2 cells [16]; [22]) was “-VE”, the “DILI in vitro assay prediction, Persson (2013)” value (HepG2 cells [16]; Structural based (HCI), HepG2, ref Persson et al. 2013) was “-VE” and the “Human plasma Cmax,u” value [17] was 0.272 µM. The “Structural based (HCI)” value (human hepatocytes) was “-VE”.
